# Results reported in ChEMBL document CHEMBL1201862, “PubChem BioAssay data set” (2004).
# Active and inactive are the calls of the source. Rule as the data show it, for most assays here: actives have a measured EC50 and inactives only a lower limit.
# Experiments:
# Vero [1] = test: cells; assay type: functional; conditions: Chlorocebus sabaeus
# NS3 = NS3 (Hepatitis C virus, UniProt A3EZJ3); test: PubChem AID 2173; parameters: species or system Hepacivirus hominis
# Vero [2] = test: cells; assay type: functional, cell-based; conditions: Chlorocebus sabaeus
# Vero [3] = test: Vero cell cytotoxicity, cytotoxicity control for flavivirus capping enzyme inhibitors (AID 588742); assay type: functional; conditions: Chlorocebus sabaeus
# [4] = target: Induced myeloid leukemia cell differentiation protein Mcl-1 (Homo sapiens, UniProt Q07820); assay type: functional
# [5] = enhancers of respiration in Yfh1-depleted yeast, dose response, Friedreich's ataxia, plus single-dose screen (AID 1465); assay type: functional;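 also: yeast depleted of Yfh1p frataxin homolog grown on glycerol needing respiration; WST-1 tetrazolium dye reduction as measure of cellular dehydrogenase metabolic activity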
# Troponin, cardiac muscle = Troponin, cardiac muscle (Homo sapiens, UniProt P19429+P45379+P63316); test: Fluorescence-based biochemical high throughput dose response assay for activators of the calcium sensitivity of cardiac Regulated Thin Filaments (RTF). [Related pubchem assays (depositor defined):AID493008, AID493018, AID504382, AID504383]; assay type: protein-complex assay
# [6] = NIH-3T3 fibroblast cytotoxicity, dose response, cytotoxicity control, cell-based, fluorescence, Alamar Blue, secondary assay (AID 2327); assay type: functional;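 also: NIH-3T3 mouse fibroblasts cultured with fluconazole at 8 µg/mL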
# [7] = C. albicans growth with fluconazole, confirmation, fluorescence, retest (AID 2467); assay type: functional, cell-based
# [8] = tested on: Streptococcus sp. 'group A'; test: growth inhibition of control SK(-) GAS strain, dose response, counter-screen for streptokinase expression inhibitor project, luminescence, kanamycin, BacTiterGlo, confirmation (AID 1900); assay type: functional, organism-based
# Streptococcus = test: Group A Streptococcus viability loss, dose response, counter-screen for streptokinase expression inhibitor project, luminescence, BacTiterGlo (AID 1915); assay type: functional, organism-based;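 also: potency for reduction of bacterial viability or growth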
# Streptokinase A = target: T1, Streptokinase A (Streptococcus pyogenes serotype M1, UniProt P10520); test: S. pyogenes streptokinase expression inhibitors, potency, dose response, plasminogen activation absorbance, OD405 (AID 1914); assay type: functional, Streptococcus pyogenes M1 GAS;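 also: secreted streptokinase activity via plasminogen activation per viability signal from cell pellet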
# T1 sequence (P10520 whole entry): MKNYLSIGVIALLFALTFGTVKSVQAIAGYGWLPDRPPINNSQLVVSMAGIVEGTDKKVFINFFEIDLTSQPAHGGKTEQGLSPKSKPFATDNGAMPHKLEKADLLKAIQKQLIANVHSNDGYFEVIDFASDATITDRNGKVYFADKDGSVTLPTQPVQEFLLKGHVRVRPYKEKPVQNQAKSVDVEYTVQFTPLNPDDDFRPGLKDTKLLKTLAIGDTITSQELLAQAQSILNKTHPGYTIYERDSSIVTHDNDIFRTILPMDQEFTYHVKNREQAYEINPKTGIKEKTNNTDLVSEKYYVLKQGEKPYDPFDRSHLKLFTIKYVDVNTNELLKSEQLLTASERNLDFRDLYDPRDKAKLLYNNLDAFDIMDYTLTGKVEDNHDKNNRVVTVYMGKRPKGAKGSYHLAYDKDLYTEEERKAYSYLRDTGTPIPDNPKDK
# [9] = target: T2, Replicative DNA helicase DnaB (Mycobacterium tuberculosis, UniProt P9WMR3); test: DnaB intein splicing inhibitors, dose response, biochemical, cell-free fluorescence (AID 449749); assay type: functional
# T2 sequence (P9WMR3 whole entry): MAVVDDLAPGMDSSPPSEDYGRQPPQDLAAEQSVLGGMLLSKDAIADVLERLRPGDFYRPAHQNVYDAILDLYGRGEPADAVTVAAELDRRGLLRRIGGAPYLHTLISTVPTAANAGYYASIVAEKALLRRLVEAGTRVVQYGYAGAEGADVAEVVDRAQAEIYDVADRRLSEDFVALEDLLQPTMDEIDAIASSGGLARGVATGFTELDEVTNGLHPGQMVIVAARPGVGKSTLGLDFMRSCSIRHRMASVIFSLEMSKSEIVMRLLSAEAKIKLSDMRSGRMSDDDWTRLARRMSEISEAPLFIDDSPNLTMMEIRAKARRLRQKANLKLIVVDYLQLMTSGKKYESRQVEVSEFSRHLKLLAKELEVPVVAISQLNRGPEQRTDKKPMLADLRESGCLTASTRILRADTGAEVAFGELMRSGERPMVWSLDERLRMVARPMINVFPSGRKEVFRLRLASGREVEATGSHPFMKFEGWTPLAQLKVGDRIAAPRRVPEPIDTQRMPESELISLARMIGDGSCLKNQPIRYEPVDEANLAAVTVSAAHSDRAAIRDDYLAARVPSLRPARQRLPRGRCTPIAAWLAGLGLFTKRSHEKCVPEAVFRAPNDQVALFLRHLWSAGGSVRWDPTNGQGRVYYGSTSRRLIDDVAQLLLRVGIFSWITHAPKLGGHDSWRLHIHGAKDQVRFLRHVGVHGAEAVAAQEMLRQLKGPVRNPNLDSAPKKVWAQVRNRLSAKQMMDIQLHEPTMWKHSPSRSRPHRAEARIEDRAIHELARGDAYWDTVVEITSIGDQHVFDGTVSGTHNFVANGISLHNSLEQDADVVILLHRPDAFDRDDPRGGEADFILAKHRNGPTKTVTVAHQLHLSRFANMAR
# [10] = Luminescence Cell-Based Dose Retest to Confirm Inhibitors of Cancer Stem Cells. [Related pubchem assays (depositor defined):AID2717, AID2721]; assay type: functional; conditions: Homo sapiens
# Protein RecA = target: T3, Protein RecA (Mycobacterium tuberculosis, UniProt P9WHJ3); test: Fluorescence Cell-Free Homogeneous Dose Retest to Identify Inhibitors of RecA-Intein Splicing Activity. [Related pubchem assays (depositor defined):AID2097, AID2223, AID489010, AID492950]; assay type: functional
# T3 sequence (P9WHJ3 whole entry): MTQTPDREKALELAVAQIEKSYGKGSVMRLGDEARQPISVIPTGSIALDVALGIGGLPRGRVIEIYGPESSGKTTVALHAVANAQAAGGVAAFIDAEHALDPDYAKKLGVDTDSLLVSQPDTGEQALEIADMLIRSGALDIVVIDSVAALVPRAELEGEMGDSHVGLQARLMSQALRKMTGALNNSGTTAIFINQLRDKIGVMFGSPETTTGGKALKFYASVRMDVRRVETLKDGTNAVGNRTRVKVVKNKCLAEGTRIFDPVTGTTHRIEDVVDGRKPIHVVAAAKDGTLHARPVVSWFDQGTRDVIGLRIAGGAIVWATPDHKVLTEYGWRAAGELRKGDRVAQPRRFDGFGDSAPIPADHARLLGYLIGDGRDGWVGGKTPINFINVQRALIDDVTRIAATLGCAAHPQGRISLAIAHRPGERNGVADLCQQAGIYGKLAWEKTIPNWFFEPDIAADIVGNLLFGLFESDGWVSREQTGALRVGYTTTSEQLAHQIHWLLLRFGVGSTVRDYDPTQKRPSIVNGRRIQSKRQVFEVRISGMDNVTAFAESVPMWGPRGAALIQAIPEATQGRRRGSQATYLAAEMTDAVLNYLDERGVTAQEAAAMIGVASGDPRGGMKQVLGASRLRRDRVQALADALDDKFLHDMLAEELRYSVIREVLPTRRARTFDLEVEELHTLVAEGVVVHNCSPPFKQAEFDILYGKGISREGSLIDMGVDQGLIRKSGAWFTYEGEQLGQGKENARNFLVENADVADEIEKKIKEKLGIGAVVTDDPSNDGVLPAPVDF
# [11] = target: T4, Heat shock factor protein 1 (Mus musculus, UniProt P38532); test: HSF1 potentiators in luciferase reporter cells, confirmation, cell-based, NIH3T3, luminescence, dose retest (AID 435004); assay type: functional;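 also: stress induced by proteasome inhibitor MG132 added 30 min after compound; luciferase reporter driven by HSF1 response element in NIH3T3 cells; actives raise luminescence as potentiators of the MG132 stress response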
# T4 sequence (P38532 whole entry): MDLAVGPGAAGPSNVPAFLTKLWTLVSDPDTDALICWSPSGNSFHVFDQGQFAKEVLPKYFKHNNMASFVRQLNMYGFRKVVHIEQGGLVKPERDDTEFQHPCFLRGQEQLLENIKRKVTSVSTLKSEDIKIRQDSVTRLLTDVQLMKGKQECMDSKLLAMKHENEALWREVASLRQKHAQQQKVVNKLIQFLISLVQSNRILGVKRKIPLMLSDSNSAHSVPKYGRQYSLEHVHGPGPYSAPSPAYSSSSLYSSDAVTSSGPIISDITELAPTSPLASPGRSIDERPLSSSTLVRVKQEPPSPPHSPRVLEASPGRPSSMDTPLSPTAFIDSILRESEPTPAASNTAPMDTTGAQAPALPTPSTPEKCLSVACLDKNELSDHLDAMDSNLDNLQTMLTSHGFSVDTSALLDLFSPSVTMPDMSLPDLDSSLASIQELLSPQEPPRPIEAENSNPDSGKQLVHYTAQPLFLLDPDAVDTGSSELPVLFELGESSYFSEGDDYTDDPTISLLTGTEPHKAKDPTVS
# Vero [12] = test: host cell cytotoxicity of antiviral hits, dose response, cytotoxicity control for West Nile virus antiviral project, secondary assay (AID 1650); assay type: functional; conditions: Chlorocebus sabaeus
# [13] = Luminescence Cell-Based Dose Confirmation to Identify Activators of 5'UTR Stem-Loop Driven Alpha-Synuclein mRNA Translation in H4 Neuroglioblastoma Cells. [Related pubchem assays: 1829 (Project Summary), 1814 (Primary HTS)]; assay type: functional
# [14] = microbe, parasite or virus in culture; assay type: functional; conditions: Mycobacterium tuberculosis
# H4 = test: Luminescence Cell-Based Dose Response HTS to Identify Activators of 5'UTR Stem-Loop Driven Prion Protein mRNA Translation in H4 Neuroglioblastoma Cells. [Related pubchem assays: 1829 (Project Summary), 1814 (Primary HTS)]; assay type: functional; conditions: Homo sapiens
# [15] = Luminescence Cell-Based Dose Response to Identify Activators of 5'UTR Stem-Loop Driven Prion Protein mRNA Translation in H4-C Neuroglioblastoma Cells. [Related pubchem assays: 1829 (Project Summary), 1814 (Primary HTS)]; assay type: functional
# [16] = Luminescence Cell-Based Dose Response to Identify Activators of Luciferase Translation or Activity in H4-C Neuroglioblastoma Cells. [Related pubchem assays: 1829 (Project Summary), 1814 (Primary HTS)]; assay type: functional
# [17] = Luminescence Cell-Based Dose Confirmation HTS to Identify Activators of 5'UTR Stem-Loop Driven Alpha-Synuclein mRNA Translation in H4 Neuroglioblastoma Cells. [Related pubchem assays: 1829 (Project Summary), 1814 (Primary HTS)]; assay type: functional
# [18] = Luminescence Cell-Based Dose Response HTS to Identify Activators of Luciferase Translation or Activity in H4 […] Cells. [Related pubchem assays: 1829 (Project Summary), 1814 (Primary HTS)]; assay type: functional
# BJ = test: cytotoxicity toward Ras-transformed BJeLR fibroblasts, dose response, cell-based, alamar blue fluorescence, cherrypicked samples (AID 2631); assay type: functional; conditions: Homo sapiens;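 also: confirmatory dose-response assay in RAS-dependent BJ fibroblasts engineered with TERT, LT and ST, with cytotoxicity read by fluorescence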
# [19] = target: Sphingosine 1-phosphate receptor 1 (Homo sapiens, UniProt P21453); assay type: functional;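 also: Tango beta-arrestin reporter U2OS cells stimulated with S1P near its EC80; inhibitor potency meaning antagonism of receptor activation by the natural agonist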
# [20] = target: T4, Heat shock factor protein 1; test: inhibition of MG132-induced HSE-luciferase signal, confirmation, cell-based, NIH3T3, luminescence, dose retest (AID 2382); assay type: functional;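 also: NIH3T3 fibroblasts with HSF1-driven luciferase reporter stressed by proteasome inhibitor MG132; luminescence from HSF1-driven luciferase expression after 8 hours of MG132 stress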
# [21] = target: Sphingosine 1-phosphate receptor 4 (Homo sapiens, UniProt O95977); test: Fluorescence dose response cell-based high throughput screening assay for antagonists of the Sphingosine 1-Phosphate Receptor 4 (S1P4). [Related pubchem assays: 1524 (Confirmation in triplicates.), 1510 (Primary screen.)]; assay type: functional
# [22] = Luminescence Cell-Based Dose Response HTS to Identify Inhibitors of 5'UTR Stem-Loop Driven Prion Protein mRNA Translation in H4 Neuroglioblastoma Cells. [Related pubchem assays: 1827 (Project Summary), 1813 (Primary HTS)]; assay type: functional
# [23] = inhibitors of SNCA 5'UTR-driven reporter translation, confirmation, H4 neuroglioma cells, luminescence (AID 1988); assay type: functional, cell-based
# [24] = inhibitors of firefly luciferase expression or activity, dose response, H4 neuroglioma cells, luminescence (AID 1990); assay type: functional, cell-based
structure (smiles),measurement,setting,value
CN=c1ccc(Br)cc(C(=O)/C=C/c2ccc(Cl)cc2Cl)c1O,CC50,Vero [1],14.4 µM (active)
same,IC50,NS3,8.09 µM (active)
same,IC50,Vero [2],12.2 µM (active)
same,CC50,Vero [3],24.7 µM (active)
same,IC50,[4],5.26 µM (active)
COc1ccc(NC(=O)/C(C#N)=C\c2ccc(N3CCOCC3)o2)cc1,EC50,[5],> 100 µM (active)
same,EC50,"Troponin, cardiac muscle",1.58 µM (active)
same,EC50,[6],> 160 µM (inactive)
same,EC50,[7],1.68 µM (active)
Oc1c(Cl)cc(Cl)cc1/C=N/NC(=S)NC1CC2C=CC1C2 (stereo not drawn),EC50,[8],0.333 µM (active)
same,EC50,Streptococcus,1.3 µM (active)
same,EC50,Streptokinase A,0.539 µM (active)
same,IC50,NS3,8.21 µM (active)
COc1ccc(/C=C/C(=O)c2ccc(O)cc2)cc1COc1ccc(F)cc1,AC50,[9],> 380 µM (inactive)
same,AC50,[10],3.91 µM (active)
same,EC50,Protein RecA,> 380 µM (inactive)
same,EC50,[11],24.3 µM (active)
same,CC50,Vero [12],33.9 µM (active)
O=C(Nc1nc2ccccc2[nH]1)C12CC3CC(CC(C3)C1)C2,EC50,[13],0.341 µM (active)
same,CC50,[14],> 40 µM (active)
same,EC50,H4,0.101 µM (active)
same,EC50,[15],0.299 µM (active)
same,EC50,[16],0.358 µM (active)
same,EC50,[17],< 0.1 µM (active)
same,EC50,[18],0.19 µM (active)
O=C(CCl)Nc1cc(SCC(O)CO)cc([N+](=O)[O-])c1 (stereo not drawn),EC50,BJ,1.05 µM (active)
same,IC50,[19],4.46 µM (active)
same,EC50,[20],2.13 µM (active)
same,IC50,[21],1.31 µM (active)
Cn1c(=O)oc2cc(S(=O)(=O)N3CCCC(C(=O)NC4CCCc5ccccc54)C3)ccc21 (stereo not drawn),EC50,[22],22.5 µM (active)
same,EC50,[23],12.9 µM (active)
same,CC50,Vero [12],2.41 µM (active)
same,EC50,[24],13.8 µM (active)
